What was measured:
[1] = biological target: Rho-associated protein kinase 2 (Homo sapiens, UniProt O75116); test: Inhibition of recombinant human ROCK2 (11 to 552 residues) using KEAKEKRQEQIAKR as substrate incubated for 40 mins in presence of [gamma-33P]ATP and 10 uM ATP by radiometric scintillation counting analysis
[2] = Inhibition of human PKA using Kemptide as substrate incubated for 40 mins in presence of [gamma-33P]ATP by radiometric scintillation counting analysis
[3] = biological target: Rho-associated protein kinase 1 (Homo sapiens, UniProt Q13464); test: Inhibition of recombinant human ROCK1 (17 to 535 residues) using […] as substrate incubated for 40 mins in presence of [gamma-33P]ATP and 10 uM ATP by radiometric scintillation counting analysis
Rho-associated protein kinase 1, sequence (Q13464 whole entry, the tested form may be a part): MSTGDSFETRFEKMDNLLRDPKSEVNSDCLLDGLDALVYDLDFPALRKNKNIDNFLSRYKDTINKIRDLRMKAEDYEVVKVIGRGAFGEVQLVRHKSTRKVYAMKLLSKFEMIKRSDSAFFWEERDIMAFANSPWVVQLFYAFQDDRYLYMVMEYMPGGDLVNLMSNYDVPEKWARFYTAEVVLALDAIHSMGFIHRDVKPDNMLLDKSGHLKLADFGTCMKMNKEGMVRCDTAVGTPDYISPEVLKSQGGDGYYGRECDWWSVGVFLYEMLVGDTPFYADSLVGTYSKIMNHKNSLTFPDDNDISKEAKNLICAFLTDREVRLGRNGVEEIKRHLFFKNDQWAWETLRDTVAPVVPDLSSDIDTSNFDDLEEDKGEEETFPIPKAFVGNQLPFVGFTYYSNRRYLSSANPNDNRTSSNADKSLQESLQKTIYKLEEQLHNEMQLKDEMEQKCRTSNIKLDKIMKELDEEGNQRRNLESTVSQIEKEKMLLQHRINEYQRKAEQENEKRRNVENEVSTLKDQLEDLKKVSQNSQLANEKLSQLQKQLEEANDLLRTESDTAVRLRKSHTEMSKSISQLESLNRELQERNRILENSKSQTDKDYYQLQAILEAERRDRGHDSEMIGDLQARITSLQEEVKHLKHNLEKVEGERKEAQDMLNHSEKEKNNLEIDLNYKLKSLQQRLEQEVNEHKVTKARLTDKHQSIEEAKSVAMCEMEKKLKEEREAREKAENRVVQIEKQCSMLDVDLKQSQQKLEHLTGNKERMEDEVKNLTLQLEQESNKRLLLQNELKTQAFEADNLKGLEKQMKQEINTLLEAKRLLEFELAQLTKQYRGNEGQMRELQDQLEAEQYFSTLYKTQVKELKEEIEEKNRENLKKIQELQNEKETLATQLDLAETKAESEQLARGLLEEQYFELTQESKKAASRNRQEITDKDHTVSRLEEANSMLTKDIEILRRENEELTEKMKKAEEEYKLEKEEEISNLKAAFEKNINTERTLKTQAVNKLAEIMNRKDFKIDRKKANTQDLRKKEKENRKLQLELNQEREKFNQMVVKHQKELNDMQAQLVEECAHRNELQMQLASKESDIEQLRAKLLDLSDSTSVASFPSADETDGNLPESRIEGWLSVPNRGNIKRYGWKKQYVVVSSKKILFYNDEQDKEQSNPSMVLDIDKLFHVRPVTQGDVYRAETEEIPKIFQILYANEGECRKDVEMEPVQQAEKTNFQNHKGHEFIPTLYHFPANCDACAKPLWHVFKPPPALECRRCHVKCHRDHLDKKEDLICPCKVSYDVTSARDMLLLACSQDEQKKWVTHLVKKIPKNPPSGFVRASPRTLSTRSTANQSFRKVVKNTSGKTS

Rho-associated protein kinase 2, sequence (O75116 whole entry, the tested form may be a part): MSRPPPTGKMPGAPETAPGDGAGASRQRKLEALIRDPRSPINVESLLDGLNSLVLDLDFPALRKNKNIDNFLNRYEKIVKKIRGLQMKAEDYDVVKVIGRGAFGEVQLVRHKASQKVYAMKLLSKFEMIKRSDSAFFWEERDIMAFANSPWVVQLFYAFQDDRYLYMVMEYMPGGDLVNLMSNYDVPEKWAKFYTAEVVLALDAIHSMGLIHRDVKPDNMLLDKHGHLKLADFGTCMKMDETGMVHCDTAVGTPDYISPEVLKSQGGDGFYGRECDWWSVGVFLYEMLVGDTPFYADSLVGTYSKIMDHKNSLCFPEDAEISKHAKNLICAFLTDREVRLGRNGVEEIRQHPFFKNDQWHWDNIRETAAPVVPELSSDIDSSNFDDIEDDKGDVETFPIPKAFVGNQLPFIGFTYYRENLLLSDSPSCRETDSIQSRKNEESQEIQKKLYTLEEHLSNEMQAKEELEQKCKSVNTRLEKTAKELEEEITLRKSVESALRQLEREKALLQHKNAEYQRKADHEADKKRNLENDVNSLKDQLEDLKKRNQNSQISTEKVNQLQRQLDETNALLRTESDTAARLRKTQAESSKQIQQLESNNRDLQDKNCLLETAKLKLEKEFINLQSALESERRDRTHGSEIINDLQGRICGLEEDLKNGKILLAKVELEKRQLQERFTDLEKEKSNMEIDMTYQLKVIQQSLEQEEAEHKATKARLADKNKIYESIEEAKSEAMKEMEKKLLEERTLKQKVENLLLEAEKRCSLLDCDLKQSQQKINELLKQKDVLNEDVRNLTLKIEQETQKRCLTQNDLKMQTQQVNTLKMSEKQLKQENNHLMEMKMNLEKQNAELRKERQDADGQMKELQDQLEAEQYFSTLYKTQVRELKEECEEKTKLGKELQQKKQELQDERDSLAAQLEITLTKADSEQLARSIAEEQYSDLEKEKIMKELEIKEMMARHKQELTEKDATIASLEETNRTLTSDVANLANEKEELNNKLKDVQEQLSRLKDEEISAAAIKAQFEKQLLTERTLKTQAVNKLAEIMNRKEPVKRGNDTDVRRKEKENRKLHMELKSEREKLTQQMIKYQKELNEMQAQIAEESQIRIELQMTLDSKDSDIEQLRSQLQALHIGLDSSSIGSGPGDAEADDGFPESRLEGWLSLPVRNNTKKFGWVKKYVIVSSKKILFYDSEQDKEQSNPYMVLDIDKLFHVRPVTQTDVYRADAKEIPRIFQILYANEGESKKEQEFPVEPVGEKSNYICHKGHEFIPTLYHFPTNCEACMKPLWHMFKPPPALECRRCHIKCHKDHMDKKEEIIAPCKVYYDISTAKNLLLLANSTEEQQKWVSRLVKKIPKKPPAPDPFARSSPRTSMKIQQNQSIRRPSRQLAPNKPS

Row | SMILES | IC50 [1] [µM] | IC50 [2] [µM] | IC50 [3] [µM]
1 | CN(C)c1ccc(C(=O)Nc2ccc(NC(=O)COc3ccc4c(=O)ccoc4c3)cc2C(F)(F)F)cc1 | 7.1 | > 10 | > 10
2 | CC(=O)c1ccc(OCC(=O)Nc2cccc(NC(=O)c3ccc(N(C)C)cc3)c2)cc1F | 0.098 | > 10 | 0.445
3 | CN(C)c1ccc(C(=O)Nc2ccc(CNC(=O)COc3ccc4c(=O)ccoc4c3)cc2)cc1 | 0.999 | > 10 | > 10
4 | CN(C)c1ccc(S(=O)(=O)Nc2cccc(NC(=O)COc3ccc4c(=O)ccoc4c3)c2)cc1 | 0.263 | > 10 | 0.803
5 | CN(C)c1ccc(C(=O)Nc2ccc(NC(=O)COc3ccc4c(=O)ccoc4c3)cc2)cc1 | 0.302 | > 10 | 1.05
6 | CN(C)c1ccc(C(=O)Nc2cccc(NC(=O)COc3ccc4c(c3)NC(=O)CC4)c2)cc1 | 3.14 | > 10 | > 10
7 | COc1cccc(OCC(=O)Nc2cccc(NC(=O)c3ccc(N(C)C)cc3)c2)c1 | 5.74 | > 10 | > 10
8 | O=C(COc1ccc2c(=O)ccoc2c1)Nc1cccc(NS(=O)(=O)c2ccc(OC(F)(F)F)cc2)c1 | 1.28 | > 10 | 6.44
9 | O=C(COc1ccc2c(=O)ccoc2c1)Nc1cccc(NC(=O)c2ccc(OC(F)(F)F)cc2)c1 | 0.077 | > 10 | 0.869
10 | CCCC(=O)Nc1cccc(NC(=O)COc2ccc3c(=O)ccoc3c2)c1 | 0.176 | > 10 | 1.43
11 | Cn1ccc(S(=O)(=O)Nc2cccc(NC(=O)COc3ccc4c(=O)ccoc4c3)c2)n1 | 1.34 | > 10 | > 10
12 | CN(C)c1ccc(C(=O)Nc2cccc(NC(=O)COc3ccc4occc(=O)c4c3)c2)cc1 | > 10 | > 10 | > 10
13 | Cc1coc2cc(OCC(=O)Nc3cccc(NC(=O)c4ccc(N(C)C)cc4)c3)ccc2c1=O | 2.15 | > 10 | > 10
14 | Cc1ccc(NC(=O)c2ccc(N(C)C)cc2)cc1NC(=O)COc1ccc2c(=O)ccoc2c1 | 3.53 | > 10 | > 10
15 | CN(C)c1ccc(C(=O)Nc2cc(Br)cc(NC(=O)COc3ccc4c(=O)ccoc4c3)c2)cc1 | 4.56 | > 10 | > 10
16 | Cc1cc(NC(=O)COc2ccc3c(=O)ccoc3c2)cc(NC(=O)c2ccc(N(C)C)cc2)c1C | 0.374 | > 10 | 3.95
17 | CN(C)c1ccc(C(=O)Nc2cccc(NC(=O)COc3ccc4c(c3)OCCO4)c2)cc1 | > 10 | > 10 | > 10
18 | Cc1ccc(NC(=O)COc2ccc3c(=O)ccoc3c2)cc1NC(=O)c1ccc(N(C)C)cc1 | 0.169 | > 10 | 1.04
19 | CC(C)(C)c1ccc(S(=O)(=O)Nc2cccc(NC(=O)COc3ccc4c(=O)ccoc4c3)c2)cc1 | 0.899 | > 10 | > 10

Row | SMILES | IC50 [1] [µM] | IC50 [2] [µM] | IC50 [3] [µM]
20 | Cc1c(NC(=O)COc2ccc3c(=O)ccoc3c2)cccc1NC(=O)c1ccc(N(C)C)cc1 | > 10 | > 10 | > 10
21 | Nc1cccc(C(=O)Nc2cccc(NC(=O)COc3ccc4c(=O)ccoc4c3)c2)c1 | 0.058 | > 10 | 0.67
22 | Cc1cc(NC(=O)COc2ccc3c(=O)ccoc3c2)ccc1NC(=O)c1ccc(N(C)C)cc1 | 4.21 | > 10 | > 10
23 | O=C(COc1ccc2c(=O)ccoc2c1)Nc1cccc(NC(=O)c2ccc(C(=O)O)cc2)c1 | 2.03 | > 10 | 6.89
24 | COc1ccc(OCC(=O)Nc2cccc(NC(=O)c3ccc(N(C)C)cc3)c2)cc1OC | > 10 | > 10 | > 10
25 | O=C(COc1ccc2c(=O)ccoc2c1)Nc1cccc(NC(=O)c2ccc(Br)cc2)c1 | 0.049 | > 10 | 0.303
26 | CN(C)c1ccc(C(=O)Nc2cccc(NC(=O)COc3ccc4c(c3)OCCC4=O)c2)cc1 | 0.085 | > 10 | 0.144
27 | Nc1ccc(C(=O)Nc2cccc(NC(=O)COc3ccc4c(=O)ccoc4c3)c2)cc1 | 0.083 | > 10 | 0.802
28 | Cc1cc(NC(=O)COc2ccc3c(=O)ccoc3c2)cc(NC(=O)c2ccc(N(C)C)cc2)c1 | > 10 | > 10 | > 10
29 | O=C(COc1ccc2c(=O)ccoc2c1)Nc1cccc(NS(=O)(=O)c2ccc(C(F)(F)F)cc2)c1 | 6.89 | > 10 | > 10
30 | O=C(COc1ccc2c(=O)ccoc2c1)Nc1cccc(NC(=O)c2ccc(F)cc2)c1 | 0.054 | > 10 | 0.129
31 | CN(C)c1ccc(C(=O)Nc2cccc(NC(=O)COc3ccc4c(c3)OCO4)c2)cc1 | > 10 | > 10 | > 10
32 | CC(=O)Nc1cccc(NC(=O)COc2ccc3c(=O)ccoc3c2)c1 | 0.136 | > 10 | 2.5
33 | CN(C)c1ccc(C(=O)Nc2cc(NC(=O)COc3ccc4c(=O)ccoc4c3)cc(C(F)(F)F)c2)cc1 | > 10 | > 10 | > 10
34 | Cc1c(OCC(=O)Nc2cccc(NC(=O)c3ccc(N(C)C)cc3)c2)ccc2c(=O)ccoc12 | 4.16 | > 10 | > 10
35 | CN(C)c1ccc(C(=O)Nc2cccc(NC(=O)COc3ccc4c(c3)CCC(=O)N4)c2)cc1 | 9.97 | > 10 | > 10
36 | NCc1ccc(C(=O)Nc2cccc(NC(=O)COc3ccc4c(=O)ccoc4c3)c2)cc1 | 0.066 | > 10 | 0.532
37 | COc1cc(OCC(=O)Nc2cccc(NC(=O)c3ccc(N(C)C)cc3)c2)ccc1C=O | 0.306 | > 10 | 3.74
38 | COc1ccc(OCC(=O)Nc2cccc(NC(=O)c3ccc(N(C)C)cc3)c2)cc1F | 0.652 | > 10 | 1.82

Compounds with a lower IC50 [1], results first:

Row | IC50 [1] [µM] | IC50 [2] [µM] | IC50 [3] [µM] | SMILES
39 | 0.043 | > 10 | 0.46 | Cc1cc(C(=O)Nc2cccc(NC(=O)COc3ccc4c(=O)ccoc4c3)c2)ccc1C(F)(F)F
40 | 0.041 | > 10 | 0.528 | O=C(COc1ccc2c(=O)ccoc2c1)Nc1cccc(NC(=O)c2cccc([N+](=O)[O-])c2)c1
41 | 0.034 | > 10 | 0.165 | CC(C)(C)c1ccc(C(=O)Nc2cccc(NC(=O)COc3ccc4c(=O)ccoc4c3)c2)cc1
42 | 0.033 | > 10 | 0.473 | Cc1nc(C(=O)Nc2cccc(NC(=O)COc3ccc4c(=O)ccoc4c3)c2)cs1
43 | 0.029 | > 10 | 0.072 | COC(=O)c1ccc(C(=O)Nc2cccc(NC(=O)COc3ccc4c(=O)ccoc4c3)c2)cc1
44 | 0.027 | > 10 | 0.117 | CN(C)c1ccc(C(=O)Nc2cccc(NS(=O)(=O)COc3ccc4c(=O)ccoc4c3)c2)cc1
45 | 0.024 | > 10 | 0.235 | CCc1ccc(C(=O)Nc2cccc(NC(=O)COc3ccc4c(=O)ccoc4c3)c2)cc1
46 | 0.022 | > 10 | 0.049 | CN(C)c1ccc(C(=O)Nc2cc(F)cc(NC(=O)COc3ccc4c(=O)ccoc4c3)c2)cc1
47 | 0.022 | > 10 | 0.183 | Cc1ccc(C(=O)Nc2cccc(NC(=O)COc3ccc4c(=O)ccoc4c3)c2)cc1
48 | 0.016 | 3.25 | 0.12 | O=C(COc1ccc2c(=O)ccoc2c1)Nc1cccc(NC(=O)c2ccccc2)c1
49 | 0.015 | > 10 | 0.123 | N#Cc1ccc(C(=O)Nc2cccc(NC(=O)COc3ccc4c(=O)ccoc4c3)c2)cc1
50 | 0.015 | 9.35 | 0.067 | O=C(COc1ccc2c(=O)ccoc2c1)Nc1cccc(NC(=O)c2ccc([N+](=O)[O-])cc2)c1
51 | 0.014 | > 10 | 0.143 | CCCc1ccc(C(=O)Nc2cccc(NC(=O)COc3ccc4c(=O)ccoc4c3)c2)cc1
52 | 0.01 | > 10 | 0.16 | O=C(COc1ccc2c(=O)ccoc2c1)Nc1cccc(NC(=O)c2cnc(C(F)(F)F)s2)c1
53 | 0.009 | > 10 | 0.017 | CCOc1ccc(C(=O)Nc2cccc(NC(=O)COc3ccc4c(=O)ccoc4c3)c2)cc1
54 | 0.007 | > 10 | 0.018 | COc1ccc(C(=O)Nc2cccc(NC(=O)COc3ccc4c(=O)ccoc4c3)c2)cc1
55 | 0.005 | > 10 | 0.068 | Cc1cc(C(=O)Nc2cccc(NC(=O)COc3ccc4c(=O)ccoc4c3)c2)no1
56 | 0.005 | > 10 | 0.101 | CC(C)(C)c1cc(C(=O)Nc2cccc(NC(=O)COc3ccc4c(=O)ccoc4c3)c2)no1
